Tests used:
BACE1 = BACE1 (Homo sapiens, UniProt P56817); assay: Determination of BACE1-inhibiting activity (fluorescence substrate cleavage); format: biochemical; conditions: compound 100 μM; BACE1 1.0 U/ml; substrate 750 nM Rh-EVNLDAEFK-Quencher; sodium acetate buffer pH 4.5; 25° C., 60 minutes; read-out: Inhibitory rate (%)
Method: Determination of BACE1-Inhibiting Activity
A sodium acetate analytical buffer solution ([…], pH 4.5) containing BACE1 (1.0 U/ml), a substrate of BACE1 (750 nM Rh-EVNLDAEFK-Quencher), a compound of the present invention (100 μM) was incubated at 25° C. for 60 minutes. The fluorescence intensity was determined by using a TECANGENios fluorimeter with a slit width of 10 nm, an excitation wavelength of 535 nm and an emission wavelength of 585 nm. Inhibitory rate(%)={1−[(S−S0)/(C−C0)]}*100%
C: the fluorescence intensity of the control (BACE1, substrate and analytical buffer solution) as determined after incubating for 60 minutes.
C0: the fluorescence intensity of the control (BACE1, substrate and analytical buffer solution) as determined after incubating for 0 minute.
S: the fluorescence intensity of the sample (BACE1, substrate, compound of the present invention and analytical buffer solution) as determined after incubating for 60 minutes.
S0: the fluorescence intensity of the sample (BACE1, substrate, compound of the present invention and analytical buffer solution) as determined after incubating for 0 minute.

Sequence of BACE1 (P56817 46-501): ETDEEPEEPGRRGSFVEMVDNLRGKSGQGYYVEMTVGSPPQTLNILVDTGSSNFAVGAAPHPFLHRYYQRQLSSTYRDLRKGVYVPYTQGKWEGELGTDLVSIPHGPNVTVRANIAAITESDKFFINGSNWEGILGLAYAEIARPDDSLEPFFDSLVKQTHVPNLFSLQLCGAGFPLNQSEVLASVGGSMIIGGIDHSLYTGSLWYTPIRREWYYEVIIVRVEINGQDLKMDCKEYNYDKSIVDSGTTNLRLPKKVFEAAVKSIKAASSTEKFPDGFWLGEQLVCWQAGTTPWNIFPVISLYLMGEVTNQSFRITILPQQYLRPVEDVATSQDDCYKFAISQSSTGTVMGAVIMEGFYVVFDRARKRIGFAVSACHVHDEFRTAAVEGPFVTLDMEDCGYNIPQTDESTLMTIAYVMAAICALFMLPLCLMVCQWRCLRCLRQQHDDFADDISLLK

SMILES	inhibition at 100 µM (BACE1)	melting point
COC(=O)CCCNC(=O)[C@H](OC(C)=O)[C@@H](OC(C)=O)C(=O)Nc1ccc(Oc2ccccc2)cc1 [Example 3, methyl L-(2R,3R)-4-[2,3-diacetoxy-3-(4-phenoxy-phenylcarbamoyl)-propionylamino]-butyrate]	39%	
O=C(O)[C@H](Cc1ccccc1)NC(=O)[C@H](O)[C@@H](O)C(=O)NCc1ccccc1 [Example 10, L-(2R,3R)-2-(3-benzylcarbamoyl-2,3-dihydroxy-propionylamino)-3-phenyl-propionic acid]		236 to 238 °C
COC(=O)C1CCC(CNC(=O)[C@H](O)[C@@H](O)C(=O)NCc2ccccc2)CC1 (stereo partly drawn) [Example 11, methyl L-(2R,3R)-4-(3-benzylcarbamoyl-2,3-dihydroxy-propionylaminomethyl)-cyclohexanecarboxylate]		153 to 154 °C
O=C(O)c1ccc(CNC(=O)[C@H](O)[C@@H](O)C(=O)NCc2ccccc2)cc1 [Example 12, L-(2R,3R)-4-[(3-benzylcarbamoyl-2,3-dihydroxy-propionylamino)methyl]-benzoic acid]		177 to 178 °C
O=C(O)CCCNC(=O)[C@H](O)[C@@H](O)C(=O)NCc1ccccc1 [Example 14, L-(2R,3R)-4-(3-benzylcarbamoyl-2,3-dihydroxy-propionylamino)-butyric acid]	22.5%	169 to 170 °C
O=C(O)C1CCC(CNC(=O)[C@H](O)[C@@H](O)C(=O)NCc2ccccc2)CC1 (stereo partly drawn) [Example 15, L-(2R,3R)-4-[(3-benzylcarbamoyl-2,3-dihydroxy-propionylamino)methyl]-cyclohexanecarboxylic acid]		236 to 238 °C
COC(=O)C1CCC(CNC(=O)[C@H](O)[C@@H](O)C(=O)Nc2ccc3ccccc3c2)CC1 (stereo partly drawn) [Example 18, methyl L-(2R,3R)-4-{[2,3-dihydroxy-3-(naphthyl-2-carbamoyl)-propionylamino]methyl}-cyclohexanecarboxylate]	22.3%	
COC(=O)[C@H](Cc1ccccc1)NC(=O)[C@H](O)[C@@H](O)C(=O)Nc1ccc2ccccc2c1 [Example 19, methyl L-(2R,3R)-2-[2,3-dihydroxy-3-(naphthalen-2-ylcarbamoyl)-propionylamino]-3-phenyl-propionate]	35%	

Next, values leading:

inhibition at 100 µM (BACE1)	melting point	SMILES
	205 to 206 °C	COC(=O)c1ccc(CNC(=O)[C@H](O)[C@@H](O)C(=O)NCc2ccccc2)cc1 [Example 8, methyl L-(2R,3R)-4-[(3-benzylcarbamoyl-2,3-dihydroxy-propionylamino)methyl]-benzoate]
	142 to 145 °C	COC(=O)CCCNC(=O)[C@H](O)[C@@H](O)C(=O)NCc1ccccc1 [Example 13, methyl L-(2R,3R)-4-(3-benzylcarbamoyl-2,3-dihydroxy-propionylamino)-butyrate]
26.5%		COC(=O)c1cc(NC(=O)[C@H](O)[C@@H](O)C(=O)NCc2ccccc2)cc(C(=O)OC)c1 [Example 16, dimethyl L-(2R,3R)-5-(3-benzylcarbamoyl-2,3-dihydroxy-propionylamino)-isophthalate]
45.3%		COC(=O)c1ccc(CNC(=O)[C@H](O)[C@@H](O)C(=O)Nc2ccc3ccccc3c2)cc1 [Example 17, methyl L-(2R,3R)-4-{[2,3-dihydroxy-3-(naphthyl-2-carbamoyl)-propionylamino]methyl}-benzoate]

Source: US8268884B2, “Derivatives of substituted tartaric acid and usage for preparing beta-secretase inhibitors” (Institute of Pharmacology and Toxicology Academy of …, priority 2006, dated 2012)
